The results in this text go back to patent publication US20250382305A1 (PTC THERAPEUTICS, INC., priority 2022, published 2025).

Some results are limits rather than exact numbers.

Experiment [1] concerns Total ATXN3 (tATXN3) protein. As to the kind of experiment: Endogenous Total ATXN3 (tATXN3) Protein Assay (MSD immunoassay of cell lysates). The note with it: average IC50, total ATXN3 protein in cell lysate after 48 h with compound (Table 1). The format is cell-based. The method in brief: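 By electrochemiluminescent MSD sandwich immunoassay (mouse monoclonal capture, rabbit monoclonal and SULFO-TAG anti-rabbit detection), endogenous ATXN3 was quantified in lysates of cells treated 48 h at 37° C at 10,000 cells/well. Treatment used a 7-point 3.16-fold duplicate dilution series, with average IC50 grouped into star categories.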

The subject of experiment [2] is ATXN3 pre-mRNA. Put plainly: RT-qPCR Assay to Quantify Exon 4 Skipping in ATXN3 pre-mRNA in Cells. The format is cell-based. The note with it: percent exon 4 skipping in ATXN3 pre-mRNA, RT-qPCR of cell lysates; average IC50. The method in brief: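 IC50 derives from a dose-response fit of percent exon 4 skipping, quantified by RT-qPCR on crude lysates. Compounds tested as 7-point 3.16-fold dilutions in duplicate; cells (10,000/well) were exposed for 24 h at 37 °C before lysis.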
Background: Quantitative PCR measures a nucleic acid by following its amplification.

For the compound `Cc1c([C@H]2CC=C(C(=O)N3CCOCC3)C[C@@H]2N)sc2c(NCc3cccs3)cc(Cl)nc12` [Compound 313, ((4S,5S)-5-amino-4-(5-chloro-3-methyl-7-((thiophen-2-ylmethyl)amino)thieno[3,2-b]pyridin-2-yl)cyclohex-1-en-1-yl)(morpholino)methanone], the IC50 in experiment [1] and in experiment [2] was 0.03 to 0.3 µM in each case.

`N[C@@H]1CCCCC[C@H]1c1sc2c(NCc3cccs3)cc(Cl)nc2c1I` [Compound 157, 2-((1R,2R)-2-aminocycloheptyl)-5-chloro-3-iodo-N-(thiophen-2-ylmethyl)thieno[3,2-b]pyridin-7-amine]: the IC50 in experiment [1] and in experiment [2] was above 1 µM each time.

Consider `N[C@@H]1CCCC[C@H]1c1sc2c(NCc3cccs3)cc(Cl)nc2c1COC(F)F.N[C@H]1CCCC[C@@H]1c1sc2c(NCc3cccs3)cc(Cl)nc2c1COC(F)F` (mixture of isomers) [Compound 257, 2-((1S,2S)-2-aminocyclohexyl)-5-chloro-3-((difluoromethoxy)methyl)-N-(thiophen-2-ylmethyl)thieno[3,2-b]pyridin-7-amine and 2-((1R,2R)-2-aminocyclohexyl)-5-chloro-3-((difluoromethoxy)methyl)-N-(thiophen-2-ylmethyl)thieno[3,2-b]pyridin-7-amine], for which the IC50 in experiment [1] was 0.03 to 0.3 µM; in experiment [2] it was at most 0.03 µM.

As for `N[C@H]1CC=CC[C@@H]1c1sc2c(NCc3ccncc3)cc(Cl)nc2c1Br` [Compound 198, 2-((1S,6S)-6-aminocyclohex-3-en-1-yl)-3-bromo-5-chloro-N-(pyridin-4-ylmethyl)thieno[3,2-b]pyridin-7-amine], the IC50 in experiment [1] and in experiment [2] was at most 0.03 µM throughout.

Regarding “6-((1S,2S)-2-aminocyclohexyl)-N-(but-2-yn-1-yl)-2-chloro-7-iodothieno[3,2-d]pyrimidin-4-amine [Compound 286]”, the IC50 in experiment [1] and in experiment [2] was 0.03 to 0.3 µM in each case.

On to `N[C@H]1CCCCCC[C@@H]1c1sc2c(NCc3cccs3)cc(Cl)nc2c1I` [Compound 122, 2-((1S,2S)-2-aminocyclooctyl)-5-chloro-3-iodo-N-(thiophen-2-ylmethyl)thieno[3,2-b]pyridin-7-amine], for which the IC50 in experiment [1] and in experiment [2] was above 1 µM in each case.

On to `N[C@@H]1CCC[C@H]1c1sc2c(NCc3cccs3)cc(Cl)nc2c1I` [Compound 154, 2-((1R,2R)-2-aminocyclopentyl)-5-chloro-3-iodo-N-(thiophen-2-ylmethyl)thieno[3,2-b]pyridin-7-amine], for which the IC50 in experiment [1] and in experiment [2] was above 1 µM each time.

`N[C@H]1CCCC[C@@H]1c1sc2c(NCc3cccs3)cc(Cl)nc2c1C1CC1` [Compound 130, 2-((1S,2S)-2-aminocyclohexyl)-5-chloro-3-cyclopropyl-N-(thiophen-2-ylmethyl)thieno[3,2-b]pyridin-7-amine]: the IC50 in experiment [1] and in experiment [2] was 0.03 to 0.3 µM each time.

With “6-((1S,2S)-2-aminocyclohexyl)-2,7-dichloro-5-(difluoromethyl)-N-(furan-2-ylmethyl)-5H-pyrrolo[3,2-d]pyrimidin-4-amine and 6-((1R,2R)-2-aminocyclohexyl)-2,7-dichloro-5-(difluoromethyl)-N-(furan-2-ylmethyl)-5H-pyrrolo[3,2-d]pyrimidin-4-amine [Compound 334]”, the IC50 in experiment [1] and in experiment [2] was 0.03 to 0.3 µM in each case.

Consider `Cc1c([C@H]2CC=C(C(=O)Nc3ccccc3)C[C@@H]2N)sc2c(NCc3cccs3)cc(Cl)nc12` [Compound 353, (4S,5S)-5-amino-4-(5-chloro-3-methyl-7-((thiophen-2-ylmethyl)amino)thieno[3,2-b]pyridin-2-yl)-N-phenylcyclohex-1-ene-1-carboxamide], for which the IC50 in experiment [1] and in experiment [2] was 0.03 to 0.3 µM in each case.

In the case of `N[C@H]1CCCC[C@@H]1c1sc2c(NCc3cccs3)cc(Cl)nc2c1I` [Compound 57, 2-((1S,2S)-2-aminocyclohexyl)-5-chloro-3-iodo-N-(thiophen-2-ylmethyl)thieno[3,2-b]pyridin-7-amine], the IC50 in experiment [1] and in experiment [2] was at most 0.03 µM each time.

Turning to `N[C@@H]1CC=CC[C@H]1c1sc2c(NCc3cccs3)nc(Cl)nc2c1Br` [Compound 385, 6-((1R,6R)-6-aminocyclohex-3-en-1-yl)-7-bromo-2-chloro-N-(thiophen-2-ylmethyl)thieno[3,2-d]pyrimidin-4-amine], the IC50 in experiment [1] and in experiment [2] was 0.03 to 0.3 µM throughout.

Regarding `[2H]C1=C([2H])C([2H])([2H])[C@H](c2sc3c(NCc4ccco4)nc(Cl)nc3c2C)[C@@H](N)C1([2H])[2H]` [Compound 187, 6-((1S,6S)-6-aminocyclohex-3-en-1-yl-2,2,3,4,5,5-d6)-2-chloro-N-(furan-2-ylmethyl)-7-methylthieno[3,2-d]pyrimidin-4-amine], the IC50 in experiment [1] and in experiment [2] was at most 0.03 µM in each case.

For `N[C@H]1CCCO[C@@H]1c1sc2c(NCc3ccco3)nc(Cl)nc2c1Br` [Compound 143, 6-((2S,3S)-3-aminotetrahydro-2H-pyran-2-yl)-7-bromo-2-chloro-N-(furan-2-ylmethyl)thieno[3,2-d]pyrimidin-4-amine], the IC50 in experiment [1] and in experiment [2] was at most 0.03 µM each time.

In the case of `N[C@H]1CC=CC[C@@H]1c1sc2c(NCc3ccco3)nc(Cl)nc2c1I` [Compound 172, 6-((1S,6S)-6-aminocyclohex-3-en-1-yl)-2-chloro-N-(furan-2-ylmethyl)-7-iodothieno[3,2-d]pyrimidin-4-amine], the IC50 in experiment [1] and in experiment [2] was at most 0.03 µM throughout.

Regarding `N[C@@H]1CCC[C@H]1c1sc2c(NCc3cccs3)cc(Cl)nc2c1-c1ccccc1` [Compound 135, 2-((1R,2R)-2-aminocyclopentyl)-5-chloro-3-phenyl-N-(thiophen-2-ylmethyl)thieno[3,2-b]pyridin-7-amine], the IC50 in experiment [1] and in experiment [2] was above 1 µM throughout.

With `N[C@@H]1CCCC[C@@H]1c1sc2c(NCc3cccs3)cc(Cl)nc2c1Br` [Compound 52, 2-((1S,2R)-2-aminocyclohexyl)-3-bromo-5-chloro-N-(thiophen-2-ylmethyl)thieno[3,2-b]pyridin-7-amine], the IC50 in experiment [1] and in experiment [2] was above 1 µM in each case.

Take `N[C@H]1CCC[C@@H]1c1sc2c(NCc3cccs3)cc(Cl)nc2c1Cl` [Compound 1, 2-((1S,2S)-2-aminocyclopentyl)-3,5-dichloro-N-(thiophen-2-ylmethyl)thieno[3,2-b]pyridin-7-amine]: the IC50 in experiment [1] and in experiment [2] was at most 0.03 µM in each case.

Consider “(1R,5R,6S)-5-amino-6-(3-bromo-5-chloro-7-((thiophen-2-ylmethyl)amino)thieno[3,2-b]pyridin-2-yl)cyclohex-2-en-1-ol and (1S,5S,6R)-5-amino-6-(3-bromo-5-chloro-7-((thiophen-2-ylmethyl)amino)thieno[3,2-b]pyridin-2-yl)cyclohex-2-en-1-ol [Compound 329]”, for which the IC50 in experiment [1] and in experiment [2] was 0.03 to 0.3 µM in each case.

Consider “(2R,3S)-2-amino-3-(3-bromo-5-chloro-7-((thiophen-2-ylmethyl)amino)thieno[3,2-b]pyridin-2-yl)cyclohexan-1-one and (2S,3R)-2-amino-3-(3-bromo-5-chloro-7-((thiophen-2-ylmethyl)amino)thieno[3,2-b]pyridin-2-yl)cyclohexan-1-one [Compound 192]”, for which the IC50 in experiment [1] and in experiment [2] was at most 0.03 µM each time.

For the compound `Cc1c([C@@H]2CC=CC[C@H]2N)sc2c(NCc3ccco3)nc(Cl)nc12` [Compound 413, 6-((1R,6R)-6-aminocyclohex-3-en-1-yl)-2-chloro-N-(furan-2-ylmethyl)-7-methylthieno[3,2-d]pyrimidin-4-amine], the concentration for half-maximal inhibition (IC50) in experiment [1] and in experiment [2] was 0.03 to 0.3 µM in each case.

Regarding `N[C@@H]1CCCO[C@@H]1c1sc2c(NCc3cccs3)cc(Cl)nc2c1Cl` [Compound 17, 2-((2S,3R)-3-aminotetrahydro-2H-pyran-2-yl)-3,5-dichloro-N-(thiophen-2-ylmethyl)thieno[3,2-b]pyridin-7-amine], the IC50 in experiment [1] and in experiment [2] was above 1 µM in each case.

Turning to `N[C@H]1CCCCC[C@@H]1c1sc2c(NCc3cccs3)cc(Cl)nc2c1-c1ccccc1` [Compound 141, 2-((1S,2S)-2-aminocycloheptyl)-5-chloro-3-phenyl-N-(thiophen-2-ylmethyl)thieno[3,2-b]pyridin-7-amine], the IC50 in experiment [1] and in experiment [2] was above 1 µM throughout.

On to `N[C@@H]1CCC[C@H]1c1sc2c(NCc3cccs3)cc(Cl)nc2c1Br` [Compound 7, 2-((1R,2R)-2-aminocyclopentyl)-3-bromo-5-chloro-N-(thiophen-2-ylmethyl)thieno[3,2-b]pyridin-7-amine], for which the IC50 in experiment [1] and in experiment [2] was 0.3 to 1 µM each time.

With `N#Cc1cc(NCc2ccco2)c2sc([C@H]3CC=CC[C@@H]3N)c(Cl)c2n1` [Compound 242, 2-((1S,6S)-6-aminocyclohex-3-en-1-yl)-3-chloro-7-((furan-2-ylmethyl)amino)thieno[3,2-b]pyridine-5-carbonitrile], the IC50 in experiment [1] and in experiment [2] was at most 0.03 µM throughout.

“2-((2R,3R)-3-aminotetrahydrofuran-2-yl)-3-bromo-5-chloro-N-(thiophen-2-ylmethyl)thieno[3,2-b]pyridin-7-amine and 2-((2S,3S)-3-aminotetrahydrofuran-2-yl)-3-bromo-5-chloro-N-(thiophen-2-ylmethyl)thieno[3,2-b]pyridin-7-amine [Compound 151]”: the IC50 in experiment [1] and in experiment [2] was 0.03 to 0.3 µM each time.

As usually defined, the IC50 is the concentration that gives 50% inhibition.
